Tests used:
mouse liver = test: APAP acute liver injury in mice, histology/IHC (TUNEL, PCNA); format: in vivo; details: 300 mg/kg APAP i.p.
Procedure: Mice were then used for isolation of primary hepatic cells for single cell RNA-sequencing or tissue harvest for further downstream analysis.
A portion of liver tissue was fixed in 10% neutral buffered formalin for 48 hrs and further processed to obtain paraffin blocks and 5 μm thick sections. A portion of liver tissue was frozen in optimal cutting temperature (OCT) medium and used to obtain 10 μm fresh frozen sections.
Histology was performed by the histology core at Beth Israel Deaconess Medical Center using standard procedures and automated workflow. Samples were processed and embedded following fixation in 10% neutral buffered formalin for 48 hrs. Samples were embedded in paraffin and sectioned at […]. Immunohistochemistry was performed on a Leica autostainer (Leica Biosystems) with enzyme treatment (1:1000) using standard protocols. The antibody used for assessment of cell proliferation was PCNA (Cell Signaling, Cat. 13110, 1:800), and cell death was ApopTag Peroxidase In Situ Apoptosis Detection Kit (Millipore, Cat. #S7100). Macrophages were stained using the anti-F4/80 (Cell Signaling, Cat. 70076, 1:500). Sections were then counterstained with hematoxylin, dehydrated, and film cover slipped. Four representative images were captured per slide. TUNEL-positive area, PCNA-positive cells, and F4/80-positive cells were measured and averaged across the four images for each sample using Fiji.

hepatocytes = test: Gene set analysis (piano) of composite DEG, APAP vs untreated; parameters: species or system mouse
Excerpt: Shared and unique by injury model gene lists were assembled by combining DE results across all time points for each injury. Applicants ran differential expression using Wilcox test in the FindAllMarkers Seurat function between each treatment condition (A6, A24, A48, A96, PH3, PH48, PH120) individually and untreated (UT). […] A small number of genes were up at one time point, but down at another.
Applicants ran pathway analysis on the composite DE results using the piano R package. Reference gene sets were downloaded from MSigDB (Broad Institute). Applicants used geneSetStat=“fisher”, adjMethod=“fdr”, and signifMethod=“geneSampling”. Applicants then parsed the results to identify shared and unique reference gene sets for each injury. Any reference gene set with a q-value greater than 0.05 was discarded as insignificant. […] Selected reference gene set −log(q) are plotted in FIG. 20.

For `CC(=O)Nc1ccc(O)cc1` [APAP, acetaminophen], which “histological analysis of liver” value (mouse liver; 6 hrs post-APAP (A6)) is on record?
The value was “pericentral necrosis”.

And the histology of liver (mouse liver; 24 hrs post-APAP (A24))?
The histology of liver was “persistent pericentral necrosis”.

And the “total cell loss (liver cell mass) after APAP exposure” value (mouse liver; PH ~70%)?
Its value is roughly 10%.

What about the “anti-oxidant response by gene set analysis (GSA)” value (hepatocytes) of the same compound?
Its value is “substantial anti-oxidant response”.

Source: patent publication US20230053540A1, “TREATMENT OF LIVER INJURY” (Massachusetts Institute of Technology, priority 2019, published 2023)
